# From PMC5913971, “A Novel Piperazine-Based Drug Lead for Cryptosporidiosis from the Medicines for Malaria Venture Open-Access Malaria Box” (Antimicrobial Agents and Chemotherapy, 2018)
# Read-outs that look alike come from different tables or passages of the source.
# Columns and labels:
# [1] = system: C. parvum Iowa isolate; experiment: IFN-γ knockout mouse model of acute cryptosporidiosis; format: in vivo, C57BL/6 IFN-γ−/− mice; settings: dose not given
# Method: All interferon gamma (IFN-γ) knockout mouse studies were performed in compliance with animal care guidelines and were approved by the Explora BioLabs (San Diego, CA) Institutional Animal Care and Use Committee. Four-week-old female C57BL/6 IFN-γ^−/− mice with normal flora were purchased from The Jackson Laboratory and were acclimated for 3 days prior to infection by oral gavage with 10^6 C. parvum Iowa isolate oocysts (Sterling Parasitology Laboratory, University of Arizona) suspended in sterile distilled water. At various times postinfection, mice were treated with the compound vehicle alone, clofazimine (used as a positive control), or MMV665917. As described previously, fecal parasite shedding was quantified at various times postinfection by isolating oocysts using a sucrose gradient centrifugation method ([39]), followed by staining for immunofluorescence microscopy using a fluorescein isothiocyanate-conjugated mouse anti-Cryptosporidium antibody (0.25 μg per sample) and analysis with a Guava easyCyte flow cytometer and CytoSoft data acquisition and analysis software (version 5.3; Guava Technologies, Inc.). Oocyst counts per milliliter of sample were exported to Excel (Microsoft Corp.) and were normalized to counts per milligram of feces. Final data analysis and graphing were carried out using GraphPad Prism software (version 6.01).
# [2] = system: C. parvum; experiment: Parasite persistence (time-kill) assay in HCT-8 cells; format: cell-based, Cryptosporidium parvum; settings: for parasite persistence: highest nontoxic concentrations, added 24 h after infection
# Method: Excysted C. parvum oocysts were added to >90% confluent HCT-8 cells in 384-well plates. […] At ∼24 h (i.e., the time of compound addition) and at various time intervals thereafter, parasites were washed, fixed, permeabilized, stained, and imaged as for the C. parvum growth assay. For the extended-compound-exposure experiments, the medium and compound were replaced every 3 days. A separate 384-well plate was used for each time interval. Parasite numbers were normalized to host cell nucleus numbers and are expressed as the percentage of parasites per host cell nucleus. In order to fit parasite decay curves, the effect of drugs was isolated from expected changes in parasite numbers over time by expressing the number of parasites as the percentage of the number of parasites with the control, dimethyl sulfoxide (DMSO), for each time point. Exponential decay curves were fit using GraphPad Prism software, version 6.01, and curve validity was assessed using the replicates test.
# [3] = system: C. parvum Iowa isolate; experiment: NOD SCID gamma (NSG) mouse model of chronic cryptosporidiosis, fecal qPCR; format: in vivo, NOD SCID gamma mice; settings: for short-term efficacy on oocyst shedding in NSG mice: Fig. 2B, dose not given
# Method: All NOD SCID gamma mouse studies were performed in compliance with animal care guidelines and were approved by the University of Vermont Institutional Animal Care and Use Committee. NOD SCID gamma mice with normal flora (NOD.Cg-Prkdc^scid Il2rg^tm1Wjl/SzJ) ([38]) were purchased from The Jackson Laboratory (Bar Harbor, ME, USA) and were housed for at least a week for acclimatization. At the age of 4 to 5 weeks, mice were infected with 10^5 C. parvum Iowa isolate oocysts. Fecal oocyst shedding is detected 6 days after infection using a quantitative PCR (qPCR assay), so treatment was started on day 7 after infection. Mice (4 per experimental group) were treated either orally (p.o.) with MMV665917 at 30 or 60 mg/kg BID, intraperitoneally (i.p.) with MMV665917 at 60 mg/kg BID, or p.o. with 1,000 mg/kg paromomycin BID. MMV665917 was suspended in DMSO, sonicated three times, for 30 s each time, to obtain a fine suspension, aliquoted, and stored at −80°C for <10 days. On the day of treatment, aliquots of MMV665917 diluted in DMSO were thawed, mixed well using a vortexer, diluted with 1% HPMC, sonicated as before (three times for 30 s each time), mixed well, and given to mice either p.o. or by i.p. injection. A final concentration of 5% DMSO was used in 100 μl of 1% HPMC per dose. For the additional Malaria Box compounds and compound variants tested, the doses were prepared in the same way, and the specific dosages tested are given in Table S3 in the supplemental material. Mice were treated for either 4 or 7 days, allowed to recover for a week, and then sacrificed. Oocyst shedding in feces was monitored throughout by qPCR, including time points while on treatment and while monitoring for relapsed infection following completion of treatment in Fig. 2A.
# [4] = system: C. parvum Iowa isolate; experiment: Immunofluorescence assay for C. parvum growth inhibition in HCT-8 cells; format: cell-based, Cryptosporidium parvum
# Method: Inhibition of C. parvum growth was measured as described previously ([20]). Oocysts were excysted by treatment with 10 mM hydrochloric acid (10 min at 37°C), followed by exposure to 2 mM sodium taurocholate (Sigma-Aldrich) in PBS for 10 min at 16°C. Excysted oocysts were then added to >95% confluent HCT-8 cell monolayers in 384-well plates at a concentration of 5,500 Iowa isolate oocysts per well. For C. parvum field isolates, the inoculum required to yield an infection level similar to that produced by 5,500 Iowa isolate oocysts per well was determined and was used for subsequent assays of parasite inhibition. Compounds were added just before or 3 h after infection, and assay plates were incubated for 48 h postinfection at 37°C under 5% CO2. Wells were then washed three times with PBS containing 111 mM D-galactose, fixed with 4% paraformaldehyde in PBS for 15 min at room temperature, permeabilized with 0.25% Triton X-100 for 10 min at 37°C, washed three times with PBS with 0.1% Tween 20, and blocked with 4% bovine serum albumin (BSA) in PBS for 2 h at 37°C or 4°C overnight. Parasitophorous vacuoles were stained with 1.33 μg/ml of fluorescein-labeled Vicia villosa lectin (Vector Laboratories) diluted in 1% BSA in PBS with 0.1% Tween 20 for 1 h at 37°C, followed by the addition of Hoechst 33258 (AnaSpec) at a final concentration of 0.09 mM diluted in water for another 15 min at 37°C. Wells were then washed five times with PBS containing 0.1% Tween 20. A Nikon Eclipse TE2000 epifluorescence microscope with an automated stage was programmed using NIS-Elements Advanced Research software (Nikon, USA) to focus on the center of each well and take a 3-by-3 composite image using an EXi Blue fluorescence microscopy camera (QImaging, Canada) with a 20× objective (numerical aperture, 0.45). Nucleus and parasite images were exported separately as .tif files and were analyzed using macros developed on the ImageJ platform (National Institutes of Health) ([20]). The only modification from the published macro used to count parasites was that the lower size threshold for parasites was decreased from 16.5 to 4 pixels (1 pixel = 0.65 μm). Graphs were plotted, and half-maximal effective concentration (EC50) and 90% effective concentration (EC90) values were calculated using GraphPad Prism software, version 6.01. For every C. parvum field isolate experiment, a dose-response experiment against the C. parvum Iowa isolate was performed simultaneously as a reference.
# [5] = dose 100 mg/kg, interval 24 h, duration 7 days
# [6] = Cryptosporidium parvum, HCT-8, Table S1, confirmed screening hits, read-out: C. parvum EC50 (95% CI)
# [7] = dose 50 mg/kg, interval 12 h, duration 4 days
# [8] = Cryptosporidium parvum, HCT-8, Table S3, SAR of MMV665917, read-out: C. parvum EC50 (95% CI)
structure (smiles),measurement,setting,value
CC(C)/N=c1\cc2n(-c3ccc(Cl)cc3)c3ccccc3nc-2cc1Nc1ccc(Cl)cc1 [clofazimine],efficacy in IFN-γ KO mouse model of acute infection,[1],confirmed
same,parasiticidal or parasitistatic for C. parvum,[2],parasitistatic
same,parasite persistence,[2],parasites persist
same,short-term efficacy on oocyst shedding in NSG mice,[3],completely lacked efficacy
"Cc1cccc(-n2ncc3c(=O)[nH]c(-n4nc(C)cc4NC(=O)C4CCCC4)nc32)c1 [MMV403679 v3, c31c(cnn1-c2cc(ccc2)C)C(=O)NC(=N3)n4c(cc(n4)C)NC(=O)C5CCCC5]",NSG efficacy,[3]; [5],No
"Cc1cc(NC(=O)c2cc3ccccc3o2)n(-c2nc3c(cnn3-c3ccccc3)c(=O)[nH]2)n1 [MMV403679 v4, c31c(cnn1-c2ccccc2)C(=O)NC(=N3)n4c(cc(n4)C)NC(=O)c5oc6c(c5)cccc6]",NSG efficacy,[3]; [5],No
"CSc1ccccc1C(=O)Nc1nc(-c2ccccn2)cs1 [MMV001246, CSc1ccccc1C(=O)Nc2nc(cs2)c3ccccn3]",EC50,[4]; [6],1800 nM
same,NSG efficacy,[3]; [7],No
"Cc1cccc(-n2ncc3c(=O)[nH]c(-n4nc(C)cc4NC(=O)C4CC4)nc32)c1 [MMV403679 v2, c31c(cnn1-c2cc(ccc2)C)C(=O)NC(=N3)n4c(cc(n4)C)NC(=O)C5CC5]",NSG efficacy,[3]; [5],No
"COc1ccc(Nc2nc(NCc3ccccc3Cl)c3ccccc3n2)cc1Cl [MMV006169 v3, COc1ccc(cc1Cl)Nc1nc(NCc2ccccc2Cl)c2c(n1)cccc2]",NSG efficacy,[3]; [7],No
"c1ccc(CNc2nc(NC3CCCC3)nc3ccccc23)cc1 [MMV006169 v2, C1CCC(C1)Nc1nc(NCc2ccccc2)c2c(n1)cccc2]",NSG efficacy,[3]; [7],No
"Oc1c(C(Nc2ccccn2)c2cccc(Oc3ccccc3)c2)ccc2cccnc12 (centres unmarked) [MMV665814, Oc1c(ccc2cccnc12)C(Nc3ccccn3)c4cccc(Oc5ccccc5)c4]",EC50,[4]; [6],590 nM
same,NSG efficacy,[3]; [7],No
"c1ccc(CNc2nc(Nc3ccccc3)nc3ccccc23)cc1 [MMV006169, C(Nc1nc(Nc2ccccc2)nc3ccccc13)c4ccccc4]",EC50,"[4]; Table S1, confirmed screening hits, read-out: C. parvum EC50 (95% CI)",1500 nM
same,NSG efficacy,[3]; [7],No
NC[C@@H]1O[C@H](O[C@H]2[C@@H](O)[C@H](O[C@@H]3[C@@H](O)[C@H](N)C[C@H](N)[C@H]3O[C@H]3O[C@H](CO)[C@@H](O)[C@H](O)[C@H]3N)O[C@@H]2CO)[C@H](N)[C@@H](O)[C@@H]1O [paromomycin],efficacy in IFN-γ KO mouse model of acute infection,[1],good efficacy
same,parasiticidal or parasitistatic for C. parvum,[2],parasitistatic
same,"percentage of host cells infected, extended treatment","[2]; day 13 of treatment, 12 × EC90, medium and drug replaced every 3 days",closely mirrored the pattern for the vehicle control
same,parasite persistence,[2],parasites persist
same,short-term efficacy on oocyst shedding in NSG mice,[3],ineffective
same,relapse after cessation of treatment,"[3]; paromomycin 1,000 mg/kg p.o. BID, 7 days",relapsed promptly
"Cc1cccc(-n2ncc3c(=O)[nH]c(-n4nc(C)cc4N)nc32)c1 [MMV403679 v5, c31c(cnn1-c2cc(ccc2)C)C(=O)NC(=N3)n4c(cc(n4)C)N]",NSG efficacy,[3]; [5],No
"CN(C)c1ccc(C(O)(c2ccc(N(C)C)cc2)c2ccc(N(C)C)cc2)cc1 [MMV665941, CN(C)c1ccc(cc1)C(O)(c2ccc(cc2)N(C)C)c3ccc(cc3)N(C)C]",EC50,[4]; [6],830 nM
same,NSG efficacy,[3]; [7],No
CC(=O)Oc1ccccc1C(=O)Nc1ncc([N+](=O)[O-])s1 [nitazoxanide],parasiticidal or parasitistatic for C. parvum,[2],parasitistatic
same,parasite persistence,[2],parasites persist
same,short-term efficacy on oocyst shedding in NSG mice,[3],did not reduce oocyst shedding
"COc1ccc(C(=O)Nc2cc(C)nn2-c2nc3c(cnn3-c3cccc(C)c3)c(=O)[nH]2)c(OC)c1 [MMV403679 v1, c31c(cnn1-c2cc(ccc2)C)C(=O)NC(=N3)n4c(cc(n4)C)NC(=O)c5c(cc(cc5)OC)OC]",NSG efficacy,[3]; [5],No
"CN1CCN(c2ccc3nnc(C(F)(F)F)n3n2)CC1 [Compound D-2, CN1CCN(CC1)c1ccc2n(n1)c(nn2)C(F)(F)F]",EC50,[4]; [8],> 25000 nM
"c1ccc(N2CCN(c3ccc4nncn4n3)CC2)cc1 [Compound D-9, c1ccc(cc1)N1CCN(CC1)c1ccc2n(n1)cnn2]",EC50,[4]; [8],> 25000 nM
"c1cc2nncn2nc1N1CCNCC1 [Compound D-53, N1CCN(CC1)c1ccc2n(n1)cnn2]",EC50,"[4]; Cryptosporidium parvum, HCT-8, read-out: C. parvum EC50 (95% CI)",> 25000 nM
"O=C(Nc1ccc(F)c(Cl)c1)N1CCN(c2ccc3nnc(C4CC4)n3n2)CC1 [Compound D-43, O=C(N1CCN(CC1)c1ccc2n(n1)c(nn2)C1CC1)Nc1ccc(c(c1)Cl)F]",EC50,[4]; [8],> 25000 nM
"Cc1cc(=O)oc2c1ccc1oc(C(=O)c3ccccc3)c(C)c12 [MMV006753, CC1=CC(=O)Oc2c1ccc3oc(C(=O)c4ccccc4)c(C)c23]",EC50,[4]; [6],250 nM
"O=C(Nc1ccc(C(F)(F)F)cc1)N1CCN(c2ccc3nncn3n2)CC1 [Compound D-75, FC(F)(F)c1ccc(cc1)NC(=O)N2CCN(CC2)c3ccc4nncn4n3]",EC50,[4]; [8],11000 nM
"O=C(Nc1nc(-c2ccccn2)cs1)c1ccccc1Br [MMV665909, Brc1ccccc1C(=O)Nc2nc(cs2)c3ccccn3]",EC50,[4]; [6],3300 nM
same,NSG efficacy,[3]; [7],No
"COc1cccc(C(=O)NC(c2ccc(C)cc2)c2cc(Cl)c3cccnc3c2O)c1 (centres unmarked) [MMV665969, COc1cccc(c1)C(=O)NC(c2ccc(C)cc2)c3cc(Cl)c4cccnc4c3O]",EC50,[4]; [6],54 nM
same,NSG efficacy,[3]; [7],No
"COc1ccc(OC)c(NC(=O)N2CCN(c3ccc4nncn4n3)CC2)c1 [Compound D-40, COc1ccc(cc1NC(=O)N1CCN(CC1)c1ccc2n(n1)cnn2)OC]",EC50,[4]; [8],> 25000 nM
"O=C(Nc1ccc(Cl)c(Cl)c1)N1CCN(c2ccc3nncn3n2)CC1 [Compound D-28, O=C(N1CCN(CC1)c1ccc2n(n1)cnn2)Nc1ccc(c(c1)Cl)Cl]",EC50,[4]; [8],550 nM
"O=C(Cc1ccccc1Cl)N1CCN(c2ccc3nncn3n2)CC1 [Compound D-42, O=C(N1CCN(CC1)c1ccc2n(n1)cnn2)Cc1ccccc1Cl]",EC50,[4]; [8],> 25000 nM
